System: differentially expressed genes in TG
Test: RNAseq gene expression profiling of TG
Format: in vivo, mouse
Protocol: Gene expression profiling was performed on TG from mice with/without nerve injury during the acute phase (three weeks post injury) in TIC mice and after transition to chronic pain (10 weeks post injury) in FRICT-ION mice by Quick Biology Inc. (Monrovia, CA).
Total RNA from ipsilateral TG was isolated using the Rneasy Mini Kit (Qiagen, Valencia, CA). Gene expression profiling and analysis with RNA was done by Quick Biology Inc. (Monrovia, CA). RNAseq library preparation was performed by Quick Biology Inc. (Monrovia, CA), sequencing was performed using an Illumina HiSeq 4000 at 40 million reads per sample. The reads were first mapped to the latest UCSC transcript set using Bowtie2 version 2.1.0 and the gene expression level was estimated using RSEM v1.2.15. Differentially expressed genes were identified using the edgeR program. Genes showing altered expression with p<0.05 were considered differentially expressed.

[1] = LMK235-Treated FRICT-ION Vs Untreated FRICT-ION
[2] = TG RNAseq, FRICT-ION mice treated with LMK235 vs naive, week 10
[3] = TG RNAseq, LMK235-treated vs untreated FRICT-ION mice

For `Cc1cc(C)cc(C(=O)NOCCCCCC(=O)NO)c1` [LMK235, N-[[6-(Hydroxyamino)-6-oxohexyl]oxy]-3,5-dimethyl-benzamide], the “Fold-change Clcn2” value [1] was 1.01, the “Fold-change Clic5” value [1] was −1.05 and the “Fold-change Eef2” value [1] was 1.01. The “Fold-change Gabra5” value [1] was −1.23, the “Fold-change Gabra6” value [1] was 2.08 and the “Fold-change Gabre” value [1] was 1.10. For the same molecule, the “Fold-change Gabrg1” value [1] was 1.14, the “Fold-change Jakmip1” value [1] was −1.10 and the “Fold-change Kcna5” value [1] was −1.41. The “Fold-change Kcnc3” value [1] was −1.04, the “Fold-change Kcnd2” value [1] was −1.00 and the “Fold-change Kcnh2” value [1] was −1.04. For the same molecule, the “Fold-change Kcnh7” value [1] was −1.19, the “Fold-change Kcnj6” value [1] was −1.38 and the “Fold-change Kcnk1” value [1] was 1.05. For the same molecule, the “Fold-change Kcns2” value [1] was −1.25, the “Fold-change Kcnv1” value [1] was 1.09 and the “Fold-change Kif1b” value [1] was 1.01. For the same molecule, the “Fold-change Maoa” value [1] was 1.14, the “Fold-change Mapk3” value [1] was −1.00 and the “Fold-change Mpz” value [1] was −1.05. For the same molecule, the “Fold-change Nacc2” value [1] was −1.00, the “Fold-change Nav3” value [1] was −1.19 and the “Fold-change Ncald” value [1] was 1.03. The “Fold-change Ndnf” value [1] was 1.06, the “Fold-change Net1” value [1] was 1.12 and the “Fold-change Neurod4” value [1] was 1.57. The “Fold-change Nf2” value [1] was 1.04, the “Fold-change Nfasc” value [1] was −1.02 and the “Fold-change Ngef” value [1] was −1.34. The “Fold-change Nkain2” value [1] was −1.14, the “Fold-change Nova1” value [1] was 1.04 and the “Fold-change Nras” value [1] was −1.03. For the same molecule, the “Fold-change Nrep” value [1] was 1.01, the “Fold-change Nrg2” value [1] was 1.10 and the “Fold-change Nrg3” value [1] was −1.00. The “Fold-change Nrp2” value [1] was 1.07, the “Fold-change Ntrk1” value [1] was 1.80 and the “Fold-change Nts” value [1] was −1.74. The “Fold-change Plcl1” value [1] was 1.13, the “Fold-change Scn2a1” value [1] was −1.04 and the “Fold-change Scn3a” value [1] was −1.01. For the same molecule, the “Fold-change Scn5a” value [1] was 1.01, the “Fold-change Scn7a” value [1] was −1.07 and the “Fold-change Scn8a” value [1] was 1.05. For the same molecule, the “Fold-change Scn9a” value [1] was 1.29, the “Fold-change Slc6a4” value [1] was 4.38 and the “Fold-change Trak1” value [1] was −1.01. The “Fold-change Trpc6” value [1] was 1.08, the “Fold-change Trpm2” value [1] was −1.02 and the “Fold-change Trpm3” value [1] was 1.19. The “Fold-change Trpm4” value [1] was 1.05, the “Fold-change Trpm7” value [1] was 1.06 and the “Fold-change Trps1” value [1] was 1.03. The “Fold-change Trpv4” value [1] was 1.21, the “Fold-change Trpv6” value [1] was −1.19 and the “Fold-change Unc80” value [1] was 1.10. The “Fold change S100a9” value (TG RNAseq, FRICT-ION + LMK235 VS FRICT-ION) was −2.74, the “C1q14 RNA level vs naïve” value [2] was “not significantly different from naïve mice” and the “Crhbp RNA level vs naïve” value [2] was “not significantly different form naïve controls”. The “P2rx4 RNA level vs naïve” value [2] was “not different from naïves”, the “Slfn4 RNA level vs naïve” value [2] was “not different from naïve controls” and the P2rx7 foldchanges (TG RNAseq, LMK235-treated and untreated FRICT-ION mice) was “minimal and insignificant foldchanges”. For the same molecule, the “Bmp2 downregulated, fold” value [3] was 1.02 fold, the “Bmp3 downregulated, fold” value [3] was 2.70 fold and the Bmp4 expression change [3] was “not affected”. For the same molecule, the “Bmp5 downregulated, fold” value [3] was 1.01 fold, the “Cacna1a downregulated, fold” value [3] was 1.16 fold and the “Cacna1 downregulated, fold” value [3] was 1.39 fold. The “Cacna1g downregulated, fold” value [3] was 1.43 fold, the “Cacna1h downregulated, fold” value [3] was 1.49 fold and the “Cacna1d downregulated, fold” value [3] was 1.04 fold. For the same molecule, the “CacnbI downregulated, fold” value [3] was 1.13 fold, the “Clcn2 upregulated, fold” value [3] was 1.01 fold and the “Kcna5 downregulated, fold” value [3] was 1.41 fold. The “Kcnd2 downregulated, fold” value [3] was 1.00 fold, the “Kcne2 reduced, fold (insignificant)” value [3] was 1.56 fold and the “Kcnh7 downregulated, fold” value [3] was 1.19 fold. For the same molecule, the “Kcnj6 downregulated, fold” value [3] was 1.38 fold, the “Kcnk1 upregulated, fold” value [3] was 1.05 fold and the “Kcns2 downregulated, fold” value [3] was 1.25 fold. The “Maoa upregulated, fold” value [3] was 1.14 fold and the “Mpz downregulated, fold” value [3] was 1.05 fold.

From US20250345295A1, “LMK235 COMPOSITIONS AND METHODS” (UNM Rainforest Innovations, priority 2024, published 2025)
